Reference: the supplement of paper PMC7017272
± gives the standard deviation of the averaged measurements.

Assays:
Settings in all cases: treatment time: 3 days
[1] = system: UT-SCC-40; experiment: drug sensitivity score (DSS); higher = more sensitive; extreme values may be limits of the assay
Summary of the method: (§1)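 The FIMM pipeline was used to fit percent-inhibition dose–response curves, giving IC50, maximal inhibition and drug sensitivity score. Input data were CellTiter-Glo 2.0 luminescence readings, normalised to vehicle (0.1% DMSO) and cell-killing control wells, from HPV-negative HNSCC cell lines seeded at 500 cells/well in 384-well plates. Cells sat on plastic, on Matrigel or Myogel coatings (500 µg/mL), or within Matrigel or Myogel plus rat collagen I, and received compounds at five 10-fold concentrations for 3 days.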

[2] = system: UT-SCC-44; experiment: as above
Summary of the method: as §1

[3] = system: UT-SCC-73; experiment: as above
Summary of the method: as §1

[4] = system: UT-SCC-81; experiment: as above
Summary of the method: as §1

[5] = system: UT-SCC-42B; experiment: as above
Summary of the method: as §1

[6] = system: UT-SCC-42A; experiment: as above
Summary of the method: as §1

[7] = system: UT-SCC-8; experiment: as above
Summary of the method: as §1

[8] = system: UT-SCC-28; experiment: as above
Summary of the method: as §1

[9] = system: UT-SCC-106A; experiment: as above
Summary of the method: as §1

[10] = system: UT-SCC-40; experiment: maximal % inhibition of viability relative to DMSO; higher = stronger effect
Procedure: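 HNSCC cell lines (500 cells/well, 384-well) were cultured on plastic, on top of (2D) or embedded (3D) in Matrigel or human leiomyoma matrix Myogel (500 ug/mL; Myogel 3D mixed with rat collagen I). Cells were treated for 3 days with 5 ten-fold concentrations of each drug, and viability was read by CellTiter-Glo. Viability was normalised to DMSO and benzethonium chloride controls and fitted with the FIMM DSRT pipeline to give IC50 (nM), maximal % inhibition and DSS. Suffixes _1/_2/_3 are replicates. Only inhibition-mode (IC50) fits are kept.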

[11] = culture condition: embedded in Matrigel
[12] = culture condition: embedded in Myogel + collagen I
[13] = culture condition: on top of Matrigel
[14] = culture condition: on top of Myogel
[15] = culture condition: plastic 2D (no matrix)

Question: CN(C)C/C=C/C(=O)Nc1cc2c(Nc3ccc(F)c(Cl)c3)ncnc2cc1O[C@H]1CCOC1 [Afatinib] was tested. Which drug sensitivity score [1, 11] did it give?
Answer: The drug sensitivity score was 16 ± 1.1 DSS.

Question: What about the drug sensitivity score [1, 12] of the same compound?
Answer: The drug sensitivity score was 2.93 ± 3.1 DSS.

Question: What about the drug sensitivity score [1, 13] of the same compound?
Answer: Its drug sensitivity score is 14.5 ± 1.1 DSS.

Question: And the drug sensitivity score [1, 14]?
Answer: The drug sensitivity score was 3.37 ± 1.5 DSS.

Question: What about the drug sensitivity score [1, 15] of the same compound?
Answer: Its drug sensitivity score is 10.2 ± 1.3 DSS.

Question: What about the drug sensitivity score [2, 11] of the same compound?
Answer: Its drug sensitivity score is 0.233 ± 0.4 DSS.

Question: What about the drug sensitivity score [2, 12] of the same compound?
Answer: Its drug sensitivity score is 0 DSS.

Question: And the drug sensitivity score [2, 13]?
Answer: The drug sensitivity score was 0 DSS.

Question: What about the drug sensitivity score [2, 14] of the same compound?
Answer: Its drug sensitivity score is 0 DSS.

Question: What about the drug sensitivity score [2, 15] of the same compound?
Answer: Its drug sensitivity score is 0 DSS.

Question: And the drug sensitivity score [3, 11]?
Answer: The drug sensitivity score was 2.43 ± 1.8 DSS.

Question: And the drug sensitivity score [3, 12]?
Answer: Its drug sensitivity score is 3.1 ± 5.4 DSS.

Question: And the drug sensitivity score [3, 13]?
Answer: Its drug sensitivity score is 0 DSS.

Question: And the drug sensitivity score [3, 14]?
Answer: Its drug sensitivity score is 0.433 ± 0.75 DSS.

Question: What about the drug sensitivity score [3, 15] of the same compound?
Answer: Its drug sensitivity score is 1.47 ± 1.2 DSS.

Question: What about the drug sensitivity score [4, 11] of the same compound?
Answer: The drug sensitivity score was 23 ± 2.7 DSS.

Question: What about the drug sensitivity score [4, 12] of the same compound?
Answer: The drug sensitivity score was 6.47 ± 11 DSS.

Question: And the drug sensitivity score [4, 13]?
Answer: Its drug sensitivity score is 18.5 ± 2.3 DSS.

Question: What about the drug sensitivity score [4, 14] of the same compound?
Answer: The drug sensitivity score was 1.6 ± 0.66 DSS.

Question: What about the drug sensitivity score [4, 15] of the same compound?
Answer: The drug sensitivity score was 12.5 ± 1.2 DSS.

Question: What about the drug sensitivity score [5, 11] of the same compound?
Answer: The drug sensitivity score was 15.7 ± 1.7 DSS.

Question: And the drug sensitivity score [5, 13]?
Answer: Its drug sensitivity score is 11.6 ± 1.6 DSS.

Question: And the drug sensitivity score [5, 14]?
Answer: Its drug sensitivity score is 0 DSS.

Question: And the drug sensitivity score [5, 15]?
Answer: The drug sensitivity score was 6.6 ± 0.72 DSS.

Question: What about the drug sensitivity score [6, 11] of the same compound?
Answer: Its drug sensitivity score is 9.73 ± 3.1 DSS.

Question: What about the drug sensitivity score [6, 12] of the same compound?
Answer: The drug sensitivity score was 0.767 ± 1.3 DSS.

Question: What about the drug sensitivity score [6, 13] of the same compound?
Answer: Its drug sensitivity score is 12.7 ± 1.4 DSS.

Question: What about the drug sensitivity score [6, 14] of the same compound?
Answer: The drug sensitivity score was 4.33 ± 1.3 DSS.

Question: And the drug sensitivity score [6, 15]?
Answer: The drug sensitivity score was 10.3 ± 2.3 DSS.

Question: What about the drug sensitivity score [7, 11] of the same compound?
Answer: Its drug sensitivity score is 19.8 ± 0.42 DSS.

Question: And the drug sensitivity score [7, 12]?
Answer: The drug sensitivity score was 0.333 ± 0.58 DSS.

Question: What about the drug sensitivity score [7, 13] of the same compound?
Answer: Its drug sensitivity score is 19 ± 0.44 DSS.

Question: What about the drug sensitivity score [7, 14] of the same compound?
Answer: The drug sensitivity score was 8.37 ± 4.4 DSS.

Question: What about the drug sensitivity score [7, 15] of the same compound?
Answer: The drug sensitivity score was 18 ± 1.5 DSS.

Question: What about the drug sensitivity score [8, 11] of the same compound?
Answer: The drug sensitivity score was 0 DSS.

Question: And the drug sensitivity score [8, 12]?
Answer: The drug sensitivity score was 0 DSS.

Question: And the drug sensitivity score [8, 13]?
Answer: The drug sensitivity score was 0.233 ± 0.32 DSS.

Question: What about the drug sensitivity score [8, 15] of the same compound?
Answer: Its drug sensitivity score is 0 DSS.

Question: What about the drug sensitivity score [9, 11] of the same compound?
Answer: Its drug sensitivity score is 10.9 ± 1.4 DSS.

Question: What about the drug sensitivity score [9, 12] of the same compound?
Answer: Its drug sensitivity score is 0 DSS.

Question: And the drug sensitivity score [9, 13]?
Answer: Its drug sensitivity score is 13.7 ± 2.2 DSS.

Question: And the drug sensitivity score [9, 14]?
Answer: Its drug sensitivity score is 0.133 ± 0.23 DSS.

Question: What about the drug sensitivity score [9, 15] of the same compound?
Answer: Its drug sensitivity score is 13.7 ± 1.7 DSS.

Question: What about the “maximal % inhibition of viability” value [10, 11] of the same compound?
Answer: Its value is 80.3 ± 2.6%.

Question: And the “maximal % inhibition of viability” value [10, 12]?
Answer: The value was 26.2 ± 14%.

Question: What about the “maximal % inhibition of viability” value [10, 13] of the same compound?
Answer: Its value is 74.2 ± 2.8%.

Question: And the “maximal % inhibition of viability” value [10, 14]?
Answer: The value was 22.6 ± 4.6%.

Question: And the “maximal % inhibition of viability” value [10, 15]?
Answer: Its value is 59.8 ± 7.3%.
